Data reported in US10596254B2 (priority 2003, dated 2020).
Square brackets hold non-standard residues; d marks the D form. Ends that are not written are not given here. Cha = N[C@@H](CC1CCCCC1)C(=O)O

Legend:
[1] = fmoc spps; Wang resin (substitution about 0.8 mmole/g), Novabiochem; HBTU/DIEA; settings: conjugation step, scale approximately 0.22 mmole (0.4 g Fmoc-AA-Wang resin); for final hplc purity: Method B, 260 nm
[2] = test system: recombinant vaccinia virus expressing the HIV-pol gene; parameters: species or system mice; settings: mouse, in vivo
I9V-loaded JA2 cells = assay: Chromium release assay, cells from immunized HHD II mice, I9V-loaded JA2 targets; assay type: in vivo; settings: three mice each
Excerpt: HHD II mice were immunized with 1 nmole of either Conjugate 7 or Conjugate 3 (which is the same as Conjugate 7 but also contains PADRE). […].
To address whether the defect in Conjugate 7 immunogenicity was the missing PADRE TH epitope, immunizations with Conjugate 7 plus PADRE TH were compared to immunizations with Conjugate 7 alone. […]. […] Further, the majority of the stimulating activity of the PADRE epitope is caused by the sequence itself, rather than the artificial junction caused by chimerizing the CTL and TH epitopes, since Conjugate 3 and Conjugate 7 plus PADRE in trans have similar immunogenicity. Similar fusion peptides, including a fusion peptide composed of PADRE and an HPV-specific CTL epitope, have been administered to volunteers and women with cervical neoplasia without causing observable autoimmunity

[3] = test system: targets labeled with I9V peptide; assay: Chromium release assay of immune splenocytes from immunized HLA A2/Kb mice, I9V-loaded targets; assay type: in vivo; settings: two doses of 50 nmoles; E:T ratio of 100
Experimental: Fourteen days later, the spleens were retrieved. The CTL responses of the immune splenocytes were tested after one round of in vitro stimulation (IVS). […] […]. […] This experiment was repeated four times with similar results each time. Using a two-tailed T test, there was a significant difference of P<0.03 at all E:T ratios. […].
[…]; SEQ ID NO:10). See Hartmann et al., J. Immunol. 164:1617-1624, 2000. The chemical yield and purity of this conjugate were similar to the others synthesized above using CpG 1826 (murine). […] […] The CpG-ODN used in Conjugate 10 also is known under the trade names ProMune™ or Vaxmune™ (Coley Pharmaceutical Group).

Substance: PADRE:I9V:N:S9L + Oligo 3
- final hplc purity [1]: 70-80% pure
- step mass [1]: About 8.0 mg

Substance: AKXVAAWTLKAAAILKEPVHGV, X = cyclohexylalanine (AK[Cha]VAAWTLKAAAILKEPVHGV) [PADRE:I9V fusion peptide]
- protection against viral challenge [2]: equivalently unprotected
- immunogenicity (chromium release) (I9V-loaded JA2 cells): little immunogenicity
- target cell lysis [3]: 8%

Substance: KSS:PADRE:S9L + Oligo 3
- final hplc purity [1]: about 70-80% pure
- step mass [1]: About 6.0 mg
